How the values were obtained:
[1] = system: normal NK cells expanded with K562-aAPC; experiment: percent inhibition of viability; higher = more inhibition; conditions: 72 h, IL-2 2.5 ng/mL
Experimental: (§1)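 Drug sensitivity and resistance testing on K562-aAPC-expanded normal NK cells: 5 concentrations (10-fold steps over a 10,000-fold range), 72 h at 37 °C, viability by CellTiter-Glo normalised to DMSO and benzethonium chloride controls; DSS from the fitted curve.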

[2] = system: normal primary NK cells, pool 1 (3 donors) (IL-2 2.5 ng/mL); experiment: drug sensitivity score (DSS) (DSS units); higher = more sensitive; extreme values may be limits of the assay; conditions: 72 h
[3] = system: NK-92 (IL-2 2.5 ng/mL); experiment: as above; conditions: 72 h
[4] = system: IMC-1 (IL-2 20 ng/mL); experiment: as above; conditions: 72 h
[5] = system: DERL-7 (IL-2 2.5 ng/mL); experiment: as above; conditions: 72 h
[6] = system: SNK-6 (IL-2 2.5 ng/mL); experiment: as above; conditions: 72 h
[7] = system: normal primary NK cells, pool 3 (3 donors) (IL-2 2.5 ng/mL); experiment: as above; conditions: 72 h
[8] = system: KAI3 (IL-2 2.5 ng/mL); experiment: as above; conditions: 72 h
[9] = system: NK-YS (IL-2 2.5 ng/mL); experiment: as above; conditions: 72 h
[10] = system: normal primary NK cells, pool 1 (3 donors), resting (IL-2 0 ng/mL); experiment: as above; conditions: 72 h
[11] = system: NKL (IL-2 2.5 ng/mL); experiment: as above; conditions: 72 h
[12] = system: YT (IL-2 2.5 ng/mL); experiment: as above; conditions: 72 h
[13] = system: KHYG-1 (IL-2 2.5 ng/mL); experiment: as above; conditions: 72 h
[14] = system: normal primary NK cells, pool 2 (3 donors) (IL-2 2.5 ng/mL); experiment: as above; conditions: 72 h
[15] = system: normal primary NK cells, pool 1 (3 donors) (IL-2 2.5 ng/mL); experiment: percent inhibition of viability; higher = more inhibition; conditions: 72 h
[16] = system: NK-92 (IL-2 2.5 ng/mL); experiment: as above; conditions: 72 h
[17] = system: IMC-1 (IL-2 20 ng/mL); experiment: as above; conditions: 72 h
[18] = system: DERL-7 (IL-2 2.5 ng/mL); experiment: as above; conditions: 72 h
[19] = system: SNK-6 (IL-2 2.5 ng/mL); experiment: as above; conditions: 72 h
[20] = system: normal primary NK cells, pool 3 (3 donors) (IL-2 2.5 ng/mL); experiment: as above; conditions: 72 h
[21] = system: KAI3 (IL-2 2.5 ng/mL); experiment: as above; conditions: 72 h
[22] = system: NK-YS (IL-2 2.5 ng/mL); experiment: as above; conditions: 72 h
[23] = system: normal primary NK cells, pool 1 (3 donors), resting (IL-2 0 ng/mL); experiment: as above; conditions: 72 h
[24] = system: NKL (IL-2 2.5 ng/mL); experiment: as above; conditions: 72 h
[25] = system: YT (IL-2 2.5 ng/mL); experiment: as above; conditions: 72 h
[26] = system: KHYG-1 (IL-2 2.5 ng/mL); experiment: as above; conditions: 72 h
[27] = system: normal primary NK cells, pool 2 (3 donors) (IL-2 2.5 ng/mL); experiment: as above; conditions: 72 h
[28] = system: normal NK cells expanded with K562-aAPC; experiment: drug sensitivity score (DSS) (DSS units); higher = more sensitive; extreme values may be limits of the assay; conditions: 72 h; IL-2 2.5 ng/mL
Experimental: as §1

O=NN(CCCl)C(=O)NCCCl [Carmustine] (max concentration tested 10000 nM)
percent inhibition of viability [%]
Conditions | 1 nM | 10 nM | 100 nM | 1000 nM | 10000 nM
[1] | -3.33 | -8.02 | -3.23 | 5.49 | 10.2
[15] | 4.94 | 8.26 | 6.5 | 0.38 | 7.88
[16] | -3.64 | -0.92 | 5.06 | 12.7 | 8.79
[17] | -8.03 | -3.09 | -2.96 | 3.55 | 8.41
[18] | 5.36 | 1.21 | 3.36 | -4.79 | -4.35
[19] | -5.81 | -6.45 | 1.48 | -7.81 | -8.51
[20] | -2.97 | 5.49 | 5.6 | 3.01 | 4.59
[21] | 12.9 | 6.82 | 6.77 | 13.6 | 17.8
[22] | -3.2 | -2.47 | -1.96 | 2.21 | 7.95
[23] | 9.22 | 19.6 | 23.1 | 5.64 | 15.2
[24] | 4.96 | 5.53 | 6.04 | 16.2 | 15.6
[25] | -9.42 | -5.55 | -4.43 | -1.14 | 11
[26] | -12.5 | -8.6 | -6.75 | 0.23 | 1.87
[27] | -2.54 | 3.84 | 0.64 | 0.07 | 9.39

Conditions | drug sensitivity score
[2] | 0
[3] | 1.02
[4] | 0
[5] | 0
[6] | 0
[7] | 0
[8] | 0
[9] | 0
[10] | 0
[11] | 1.26
[12] | 0
[13] | 0
[14] | 0
[28] | 0.01

O=C(O)c1ccc(O)c2ncccc12 [IOX-1] (max concentration tested 100000 nM)
percent inhibition of viability [%]
Conditions | 10 nM | 100 nM | 1000 nM | 10000 nM | 100000 nM
[1] | 2.28 | -1.61 | -3.75 | -2.77 | 37.3
[15] | -3.62 | -13.1 | 0.64 | 8.14 | 36.8
[16] | -6.93 | 3.17 | -9.38 | 5.58 | 84.7
[17] | -3.09 | -5.78 | -3.15 | -12.9 | 98.3
[18] | 3.2 | 6.07 | 1.59 | 7.49 | 60.9
[19] | 5.81 | 6.03 | 15.1 | 13.8 | 96.1
[20] | -7.55 | -4.61 | -5.18 | 1.2 | 19.5
[21] | -3.64 | -1.76 | 6.25 | 18.8 | 90.3
[22] | -2.09 | 1.71 | -3.7 | -0.87 | 90
[23] | -3.86 | -11 | -13.3 | 21.7 | 44.1
[24] | 1.44 | -6.7 | -0.16 | 3.16 | 91.7
[25] | -3.65 | -2.89 | -3.48 | -1.62 | 93.9
[26] | -4.24 | 1.11 | -3.63 | 4.25 | 97.2
[27] | -7.65 | 2.85 | -9.5 | -2.84 | 18.6

Conditions | drug sensitivity score
[2] | 3.07
[3] | 5.53
[4] | 4.66
[5] | 4.57
[6] | 7.64
[7] | 0.69
[8] | 8.02
[9] | 4.95
[10] | 5.03
[11] | 5.52
[12] | 5.1
[13] | 5.99
[14] | 0.36
[28] | 1.59

CNC(=O)c1cc(Oc2ccc(NC(=O)Nc3cc(C(C)(C)C)nn3-c3ccc4ncccc4c3)c(F)c2)ccn1 [Rebastinib] (max concentration tested 1000 nM)
percent inhibition of viability [%]
Conditions | 0.1 nM | 1 nM | 10 nM | 100 nM | 1000 nM
[1] | -1.77 | -3.86 | -0.78 | -3.03 | -4.18
[15] | -3.76 | -8.51 | -9.53 | -4.2 | -12.7
[16] | -1.88 | 1.51 | -1.48 | 0.06 | -12.8
[17] | 0.93 | 7.15 | -1.23 | 1.86 | -6.19
[18] | -4.96 | 1.69 | -0.5 | -4.52 | -8.09
[19] | 7.77 | 13.4 | -14.2 | 1.04 | -59.9
[20] | -9.69 | -6.19 | -1.5 | -11 | -8.81
[21] | 7.99 | 9.63 | 10.5 | 5.1 | -6.78
[22] | -1.58 | -3.98 | -0.95 | 1.01 | 2.92
[23] | -11.2 | -7.34 | -6.2 | -15.4 | 1.95
[24] | -2.2 | -3.91 | -1.3 | 8.69 | 5.2
[25] | -4.61 | -3.15 | -0.26 | 1.61 | -0.37
[26] | -2.88 | -0.08 | 0.01 | -1.2 | -8.03
[27] | -4.03 | -4.97 | -4.4 | -1.73 | -9.3

Conditions | drug sensitivity score
[2] | 0
[3] | 0
[4] | 0
[5] | 0
[6] | 0
[7] | 0
[8] | 0
[9] | 0
[10] | 0
[11] | 0
[12] | 0
[13] | 0
[14] | 0
[28] | 0
